Where two headings read alike, the source gives them in different places.
Assays:
human 11β-HSD2 = biological target: T1, human 11β-HSD2 (Homo sapiens, UniProt P80365); assay: Cellular in vitro 11β-HSD2 enzyme inhibition assay (CHO cells); assay type: cell-based; conditions: CHO cells stably transfected with human 11β-HSD2; Table 1
T1 construct: CHO cells stably transfected with the full-length gene coding for human 11β-HSD2 were used; expressed in transfected cells
T1 sequence (P80365 1-405): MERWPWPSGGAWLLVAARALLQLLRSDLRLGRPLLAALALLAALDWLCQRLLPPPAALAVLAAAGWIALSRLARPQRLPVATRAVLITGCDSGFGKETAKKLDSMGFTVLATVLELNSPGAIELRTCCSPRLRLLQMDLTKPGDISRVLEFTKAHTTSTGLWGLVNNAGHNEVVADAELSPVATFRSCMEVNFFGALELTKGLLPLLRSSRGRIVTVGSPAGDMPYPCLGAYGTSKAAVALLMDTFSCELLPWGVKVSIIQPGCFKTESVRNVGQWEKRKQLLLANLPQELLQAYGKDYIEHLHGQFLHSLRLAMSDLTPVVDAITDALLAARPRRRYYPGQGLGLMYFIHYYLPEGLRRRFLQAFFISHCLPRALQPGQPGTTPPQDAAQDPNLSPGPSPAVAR
Experimental: Cellular In Vitro 11β-HSD2 Enzyme Inhibition Assay
Assays were carried out in 96-well microplates containing 1×10^5 cells/well. Controls and compounds were plated as above, so that the final DMSO concentration in each well was 1%. To initiate the assay, 90 μL of a solution of HAMS F-12 medium containing 1% glutamine, 1% penicillin and streptomycin, and 22 nM tritiated cortisol was added to each well of the assay plate. The plate was then incubated in 5% CO2, 95% O2 at 37° C. for 16 hours.
The assay solutions were transferred to glass tubes and 20 μL ethyl acetate added to each tube. Each tube was vortexed thoroughly and the upper layer containing the tritiated steroid transferred to a fresh glass tube. The solvent was evaporated by placing the tubes in a heating block at 65° C. under a stream of Nitrogen gas. 20 μL ethanol was added to each of the dried samples and vortexed briefly. Each sample was applied to a silica TLC plate and the plate dried. The plate was placed vertically in a glass tank containing 92% chloroform:8% ethanol and the solvent allowed to rise up the plate. The plate was dried, placed in an imaging cassette, and overlayed with a tritium imaging plate for 1-2 days. The amount of enzyme inhibition in each sample was determined by measuring the intensity of the substrate and product spots using a phosphoimager.
IC50 values for inhibitors were determined as described for 11β-HSD1.

human 11β-HSD1 enzyme = biological target: T2, human 11β-HSD1 enzyme (Homo sapiens, UniProt P28845); assay: Cellular in vitro 11β-HSD1 enzyme inhibition assay (SPA, HEK293/11β-HSD1 cells); assay type: cell-based; conditions: read-out: IC50 for 11β-HSD1 (HEK293)
T2 construct: stably transfected with a construct containing the full-length gene coding for the human 11β-HSD1 enzyme; expressed in transfected cells; HEK293/11β-HSD1 cells)
T2 sequence (P28845 whole entry): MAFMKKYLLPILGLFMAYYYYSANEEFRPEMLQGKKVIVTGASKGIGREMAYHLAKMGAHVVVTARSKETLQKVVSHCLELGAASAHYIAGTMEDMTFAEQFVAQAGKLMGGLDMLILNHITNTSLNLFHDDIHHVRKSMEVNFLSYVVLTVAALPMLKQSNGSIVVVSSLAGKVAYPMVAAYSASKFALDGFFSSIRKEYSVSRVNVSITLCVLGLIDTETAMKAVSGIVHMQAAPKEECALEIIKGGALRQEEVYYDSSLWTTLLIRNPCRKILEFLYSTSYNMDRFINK
Experimental: Cellular In Vitro 11β-HSD1 Enzyme Inhibition Assay
Compounds were assessed by a Scintillation Proximity Assay (SPA) performed according to the following protocol:
HEK293 cells were stably transfected with a construct containing the full-length gene coding for the human 11β-HSD1 enzyme to create HEK293/11β-HSD1 cells. Cells were routinely cultured in DMEM containing 10% calf foetal serum, 1% glutamine, and 1% penicillin and streptomycin. Prior to assay, cells were plated at 2×10^4 cells/well in 96-well poly-D-Lys coated flat-bottomed microplates and incubated in 5% CO2, 95% O2 at 37° C. for 24 hours. The media in each well was removed immediately before assay.
Compounds to be tested were dissolved in DMSO at 10 mM and serially diluted into water containing 10% DMSO. Diluted compounds at a volume of 10 μL were added to wells of a 96-well V-bottomed microplate. A solution of DMEM, 1% glutamine, 1% penicillin and streptomycin, and 22 nM tritiated cortisone was prepared and 90 μL added to each well of the assay plate. This solution (100 μL/well) was transferred to the plate containing the cells. The plate was then incubated in 5% CO2, 95% O2 at 37° C. for 2 hours.
Following this incubation, 50 μL of the assay solution was transferred to each well of a 96-well scintillation microplate. A mixture consisting of anti-mouse YSi SPA beads, pre-mixed with anti-cortisol antibody in assay buffer (50 mM Tris.HCl, pH 7.0; 300 mM NaCl; 1 mM EDTA, 5% glycerol) was prepared and 50 μL added to each well of the scintillation microplate. An adhesive strip was applied to the microplate and the plate gently shaken for at least 2 hours at room temperature, and then spun briefly on a low speed centrifuge. The plate was read on a scintillation counter suitable for 96-well microplates. For the calculation of percentage inhibition, a series of wells were added to the plate that represented the assay maximum and the assay minimum: one set that contained substrate without cells (minimum) and another set that contained substrate and cells without any compound (maximum).
The calculation of median inhibitory concentration (IC50) values for the compounds was performed using GraphPad Prism® software. Dose-response curves for each compound were plotted as fractional inhibition and data fitted to the four parameter logistic equation.

Pharmacokinetics in rat = assay type: in vivo, male Sprague Dawley rats; conditions: male, Sprague Dawley, whole blood, intravenous 1 mg/kg and oral 10 mg/kg, read-out: % F (% Bioavailability)
Experimental: The pharmacokinetics of certain compounds were determined following intravenous (1 mg/kg) and oral (10 mg/kg) administration to male Sprague Dawley rats. Dosing solution was prepared by mixing each compound with 2% DMSO, 38% PEG-400 and 60% (0.9%) NaCl. Solutions were passed through 0.2 μm filters prior to administration.
Following dosing and at appropriate time points, blood samples were taken from a lateral tail vein and transferred into a tube pre-treated with EDTA. Blood samples were analysed for parent compound by LCMS and the quantity of parent compound remaining determined. Non-compartmental analysis was applied to the data using WinNonlin™ software to determine the pharmacokinetic parameters for each compound.

[1] = In vitro human liver microsomal stability assay; assay type: in vitro ADME; conditions: human liver microsomes
Experimental: In Vitro Human Liver Microsomal Stability Assay
To predict in vivo metabolism of compounds, the stability of compounds incubated with human liver microsomes in vitro was determined. Human liver microsome preparations were stored at −80° C. and thawed on ice prior to use. The thawed microsomes were diluted to a concentration of 2 mg/mL in 50 mM sodium phosphate, pH 7.4. Reference and test compounds were prepared as 10 mM stocks in 100% DMSO and diluted to 1 mM in acetonitrile before use. Each compound was tested in triplicate as follows:
4 μL of test or reference compound was added to a well of a 24-well microplate and 0.5 mL of 4 mM NADPH added. The plate was then transferred to a shaker for 10 minutes at room temperature. 30 μL of the compound/NADPH solution was transferred to the well of a 96-well microplate and incubated at 37° C. for 5 minutes. 30 μL of human liver microsomes (pre-incubated at 37° C. for 5 minutes) was added to the well containing the compound/NADPH solution and the plate incubated for the selected period of time (typically 0 or 30 minutes). The reaction was stopped by adding 60 μL of ice cold […] trichloroacetic acid. The plate was centrifuged at 1000 rpm for 5 minutes at room temperature and the supernatant transferred to the well of a new 96-well v-bottomed microplate for mass spectrometric analysis.
Samples were analyzed by TSQ Quantum Discovery Tandem Mass Spectrometer and Surveyor Liquid Chromatogram (Thermo, Hemel-Hempstead, UK). 10 μL of each sample was injected in a mobile phase consisting of 60%:40% methanol:5 mM ammonium acetate at a flow rate of 0.5 mL/minute. The column used was a BDS hypersil, C18, 50×2.1 mm with a 5 μm particle size.
Each compound was tuned with a spray voltage of 3000 V and a capillary temperature of 300° C. and values for tube lens, CID and product ions were determined.
The peak area for each compound was measured in triplicate for the 0 and 30 minute samples and the average of each was reported. The percentage remaining after 30 minutes was calculated as the average peak area of the sample after 30 minutes divided by the average peak area at 0 minutes. The RSD was 10% or lower for each compound.

Question: With `O=C(c1csc(-c2cn[nH]c2)c1)N1C2CCC1CC(O)(c1ccccc1)C2` (centres unmarked) [AA-06] as the molecule, how does the IC50 (human 11β-HSD2) read?
Answer: > 10000 nM

Question: What about the IC50 (human 11β-HSD1 enzyme; HEK293 cells stably transfected with human 11β-HSD1, Table 1) of the same molecule?
Answer: 21 nM

Question: What about the IC50 (human 11β-HSD1 enzyme) of the same molecule?
Answer: ≤ 500 nM

Question: And the bioavailability (Pharmacokinetics in rat)?
Answer: 11 to 30%

Question: And the “% Parent Remaining at 30 min” value [1]?
Answer: +++ (61-100% +++)

Reference: patent US8642621B2, “(4-phenyl-piperidin-1-yl)-[5-(1H-pyrazol-4-yl)-thiophen-3-yl]-methanone compounds and their use” (The University Of Edinburgh, priority 2009, dated 2014)
